Experimental data as given in the NIST ThermoML archive (doi:10.1016/j.fluid.2019.03.023).
± gives the expanded uncertainty stated by the source.

Assay: activity coefficient (dimensionless); of the first substance listed, at infinite dilution; xn = mol fraction of the nth substance listed
Conditions: 101.33 kPa, Liquid, Chromatography, x1 = 0

Row | Structure (SMILES) | activity coefficient (313.15 K) | activity coefficient (323.15 K) | activity coefficient (333.15 K) | activity coefficient (343.15 K)
1 | Cc1ccccc1C [1,2-dimethylbenzene] + CCCCCCCCCCCCCC[P+](CCCCCC)(CCCCCC)CCCCCC.N#C[N-]C#N | 0.525 ± 0.057 | 0.566 ± 0.061 | 0.613 ± 0.065 | 0.651 ± 0.069
2 | Cc1cccc(C)c1 [1,3-dimethylbenzene] + CCCCCCCCCCCCCC[P+](CCCCCC)(CCCCCC)CCCCCC.N#C[N-]C#N | 0.633 ± 0.067 | 0.654 ± 0.069 | 0.689 ± 0.072 | 0.716 ± 0.075
3 | Cc1ccc(C)cc1 [1,4-dimethylbenzene] + CCCCCCCCCCCCCC[P+](CCCCCC)(CCCCCC)CCCCCC.N#C[N-]C#N | 0.602 ± 0.064 | 0.64 ± 0.068 | 0.68 ± 0.071 | 0.706 ± 0.074
4 | C=CCCCCCCCC [1-decene] + CCCCCCCCCCCCCC[P+](CCCCCC)(CCCCCC)CCCCCC.N#C[N-]C#N | 1.58 ± 0.17 | 1.77 ± 0.18 | 1.98 ± 0.21 | 2.19 ± 0.23
5 | C=CCCCCC [1-heptene] + CCCCCCCCCCCCCC[P+](CCCCCC)(CCCCCC)CCCCCC.N#C[N-]C#N | 1.09 ± 0.11 | 1.13 ± 0.12 | 1.17 ± 0.12 | 1.22 ± 0.13
6 | C#CCCCCC [1-heptyne] + CCCCCCCCCCCCCC[P+](CCCCCC)(CCCCCC)CCCCCC.N#C[N-]C#N | 0.485 ± 0.054 | 0.57 ± 0.061 | 0.644 ± 0.068 | 0.721 ± 0.075
7 | C#CCCCC [1-hexyne] + CCCCCCCCCCCCCC[P+](CCCCCC)(CCCCCC)CCCCCC.N#C[N-]C#N | 0.442 ± 0.05 | 0.513 ± 0.056 | 0.593 ± 0.063 | 0.669 ± 0.07
8 | C=CCCCCCCC [1-nonene] + CCCCCCCCCCCCCC[P+](CCCCCC)(CCCCCC)CCCCCC.N#C[N-]C#N | 1.41 ± 0.15 | 1.53 ± 0.16 | 1.67 ± 0.17 | 1.82 ± 0.19
9 | C=CCCC [1-pentene] + CCCCCCCCCCCCCC[P+](CCCCCC)(CCCCCC)CCCCCC.N#C[N-]C#N | 0.796 ± 0.082 | 0.858 ± 0.088 | 0.922 ± 0.094 | 0.994 ± 0.1
10 | C#CCCC [1-pentyne] + CCCCCCCCCCCCCC[P+](CCCCCC)(CCCCCC)CCCCCC.N#C[N-]C#N | 0.413 ± 0.048 | 0.465 ± 0.052 | 0.547 ± 0.059 | 0.619 ± 0.066
11 | CCC(C)(C)C [2,2-dimethylbutane] + CCCCCCCCCCCCCC[P+](CCCCCC)(CCCCCC)CCCCCC.N#C[N-]C#N | 1.11 ± 0.11 | 1.2 ± 0.12 | 1.28 ± 0.13 | 1.35 ± 0.14
12 | CC(C)=O [acetone] + CCCCCCCCCCCCCC[P+](CCCCCC)(CCCCCC)CCCCCC.N#C[N-]C#N | 0.35 ± 0.043 | 0.363 ± 0.044 | 0.383 ± 0.045 | 0.405 ± 0.047
13 | CC#N [acetonitrile] + CCCCCCCCCCCCCC[P+](CCCCCC)(CCCCCC)CCCCCC.N#C[N-]C#N | 0.574 ± 0.062 | 0.6 ± 0.064 | 0.624 ± 0.066 | 0.651 ± 0.069
14 | c1ccccc1 [benzene] + CCCCCCCCCCCCCC[P+](CCCCCC)(CCCCCC)CCCCCC.N#C[N-]C#N | 0.319 ± 0.04 | 0.363 ± 0.044 | 0.403 ± 0.047 | 0.44 ± 0.05
15 | CCCCO [butan-1-ol] + CCCCCCCCCCCCCC[P+](CCCCCC)(CCCCCC)CCCCCC.N#C[N-]C#N | 0.421 ± 0.048 | 0.445 ± 0.05 | 0.453 ± 0.051 | 0.47 ± 0.052
16 | CCC(C)=O [butanone] + CCCCCCCCCCCCCC[P+](CCCCCC)(CCCCCC)CCCCCC.N#C[N-]C#N | 0.422 ± 0.048 | 0.448 ± 0.051 | 0.478 ± 0.053 | 0.513 ± 0.056
17 | C1CCCCC1 [cyclohexane] + CCCCCCCCCCCCCC[P+](CCCCCC)(CCCCCC)CCCCCC.N#C[N-]C#N | 0.733 ± 0.076 | 0.78 ± 0.081 | 0.832 ± 0.085 | 0.901 ± 0.092

Row | Structure (SMILES) | activity coefficient (313.15 K) | activity coefficient (323.15 K) | activity coefficient (333.15 K) | activity coefficient (343.15 K)
18 | C1=CCCCC1 [cyclohexene] + CCCCCCCCCCCCCC[P+](CCCCCC)(CCCCCC)CCCCCC.N#C[N-]C#N | 0.647 ± 0.068 | 0.709 ± 0.074 | 0.76 ± 0.079 | 0.813 ± 0.084
19 | C1CCCCCCC1 [cyclooctane] + CCCCCCCCCCCCCC[P+](CCCCCC)(CCCCCC)CCCCCC.N#C[N-]C#N | 0.89 ± 0.091 | 0.928 ± 0.095 | 0.978 ± 0.099 | 1.05 ± 0.11
20 | CCCCCCCCCC [decane] + CCCCCCCCCCCCCC[P+](CCCCCC)(CCCCCC)CCCCCC.N#C[N-]C#N | 2.19 ± 0.23 | 2.34 ± 0.25 | 2.54 ± 0.27 | 2.74 ± 0.29
21 | CCO [ethanol] + CCCCCCCCCCCCCC[P+](CCCCCC)(CCCCCC)CCCCCC.N#C[N-]C#N | 0.339 ± 0.042 | 0.359 ± 0.043 | 0.383 ± 0.045 | 0.401 ± 0.047
22 | CCc1ccccc1 [ethylbenzene] + CCCCCCCCCCCCCC[P+](CCCCCC)(CCCCCC)CCCCCC.N#C[N-]C#N | 0.567 ± 0.061 | 0.606 ± 0.064 | 0.653 ± 0.069 | 0.7 ± 0.073
23 | CCCCCCC [heptane] + CCCCCCCCCCCCCC[P+](CCCCCC)(CCCCCC)CCCCCC.N#C[N-]C#N | 1.36 ± 0.14 | 1.43 ± 0.15 | 1.52 ± 0.16 | 1.61 ± 0.17
24 | C=CCCCC [hex-1-ene] + CCCCCCCCCCCCCC[P+](CCCCCC)(CCCCCC)CCCCCC.N#C[N-]C#N | 0.915 ± 0.093 | 0.979 ± 0.1 | 1.06 ± 0.11 | 1.11 ± 0.11
25 | CCCCCC [hexane] + CCCCCCCCCCCCCC[P+](CCCCCC)(CCCCCC)CCCCCC.N#C[N-]C#N | 1.16 ± 0.12 | 1.24 ± 0.13 | 1.32 ± 0.14 | 1.39 ± 0.14
26 | CO [methanol] + CCCCCCCCCCCCCC[P+](CCCCCC)(CCCCCC)CCCCCC.N#C[N-]C#N | 0.306 ± 0.04 | 0.323 ± 0.041 | 0.344 ± 0.042 | 0.361 ± 0.044
27 | CCCCCCCCC [nonane] + CCCCCCCCCCCCCC[P+](CCCCCC)(CCCCCC)CCCCCC.N#C[N-]C#N | 1.8 ± 0.19 | 1.93 ± 0.2 | 2.09 ± 0.22 | 2.24 ± 0.23
28 | CCCCC [pentane] + CCCCCCCCCCCCCC[P+](CCCCCC)(CCCCCC)CCCCCC.N#C[N-]C#N | 1 ± 0.1 | 1.06 ± 0.11 | 1.12 ± 0.11 | 1.19 ± 0.12
29 | CCCO [propan-1-ol] + CCCCCCCCCCCCCC[P+](CCCCCC)(CCCCCC)CCCCCC.N#C[N-]C#N | 0.396 ± 0.046 | 0.41 ± 0.047 | 0.424 ± 0.049 | 0.443 ± 0.05
30 | C1CCOC1 [tetrahydrofuran] + CCCCCCCCCCCCCC[P+](CCCCCC)(CCCCCC)CCCCCC.N#C[N-]C#N | 0.351 ± 0.043 | 0.365 ± 0.044 | 0.384 ± 0.045 | 0.404 ± 0.047
31 | c1ccsc1 [thiophene] + CCCCCCCCCCCCCC[P+](CCCCCC)(CCCCCC)CCCCCC.N#C[N-]C#N | 0.372 ± 0.044 | 0.383 ± 0.045 | 0.412 ± 0.048 | 0.429 ± 0.049
32 | Cc1ccccc1 [toluene] + CCCCCCCCCCCCCC[P+](CCCCCC)(CCCCCC)CCCCCC.N#C[N-]C#N | 0.419 ± 0.048 | 0.458 ± 0.051 | 0.489 ± 0.054 | 0.523 ± 0.057
33 | O [water] + CCCCCCCCCCCCCC[P+](CCCCCC)(CCCCCC)CCCCCC.N#C[N-]C#N | 1.95 ± 0.2 | 1.82 ± 0.19 | 1.73 ± 0.18 | 1.6 ± 0.17
